This experiment deals with TRKA (Homo sapiens (Human), UniProt P04629). Briefly: Isolated TRK enzyme assay (HTRF KinEASE-TK), PV3144 TrkA enzyme assay. It is filed as biochemical. As to conditions: arithmetic mean where more than one reading. In short, it runs like this:
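His-tagged TrkA cytoplasmic domain preactivated with ATP 20 min, then with compound 20 min at room temperature before 1 µM final biotin-TK substrate; HTRF 665/620 nm read.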
Background: TR-FRET usually uses a lanthanide donor and a delayed reading to cut background.

TRKA, sequence (P04629 441-796): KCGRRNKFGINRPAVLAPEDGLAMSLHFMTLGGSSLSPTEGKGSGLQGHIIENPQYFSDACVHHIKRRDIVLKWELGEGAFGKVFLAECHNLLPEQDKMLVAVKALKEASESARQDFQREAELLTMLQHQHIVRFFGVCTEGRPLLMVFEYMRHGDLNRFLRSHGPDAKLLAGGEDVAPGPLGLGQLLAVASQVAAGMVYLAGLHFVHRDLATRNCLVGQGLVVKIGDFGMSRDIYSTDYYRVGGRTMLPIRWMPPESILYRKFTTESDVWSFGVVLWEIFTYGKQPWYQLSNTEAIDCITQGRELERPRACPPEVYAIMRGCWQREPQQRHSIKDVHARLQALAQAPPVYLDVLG

What is called IC50 is the concentration that gives 50% inhibition. The compound `O=C(Cc1ccccc1OC(F)(F)F)Nc1cc(C(=O)c2cn(CCO)c3ccncc23)ccn1` [Example 143, N-(4-{[1-(2-hydroxyethyl)-1H-pyrrolo[3,2-c]pyridin-3-yl]carbonyl}pyridin-2-yl)-2-[2-(trifluoromethoxy)phenyl]acetamide] had an IC50 of 986 nM.

`CC(CO)n1cc(C(=O)c2cc(NC(=O)Cc3ccc(Cl)cn3)ccn2)c2cnccc21` (single isomer, unassigned) [Example 86, 2-(5-chloropyridin-2-yl)-N-(2-{[1-(1-hydroxypropan-2-yl)-1H-pyrrolo[3,2-c]pyridin-3-yl]carbonyl}pyridin-4-yl)acetamide] returned a half-maximal inhibitory concentration (IC50) of 93.2 nM.

`Cc1cc(C)n(CC(=O)Nc2cncc(C(=O)c3cn(C(C)C)c4ccncc34)c2)n1` [Example 131, 2-(3,5-dimethyl-1H-pyrazol-1-yl)-N-(5-{[1-(propan-2-yl)-1H-pyrrolo[3,2-c]pyridin-3-yl]carbonyl}pyridin-3-yl)acetamide] showed an IC50 of 92.8 nM.

The compound `CC(CO)n1cc(C(=O)c2cc(NC(=O)Cc3cccc(C(F)(F)F)c3)ccn2)c2cnccc21` (single isomer, unassigned) [Example 18, 2-(3-trifluoromethylphenyl)-N-(2-{[1-(1-hydroxypropan-2-yl)-1H-pyrrolo[3,2-c]pyridin-3-yl]carbonyl}pyridin-4-yl)acetamide] yielded an IC50 of 36.4 nM.

Compound `CC(C)(CO)n1cc(C(=O)c2cncc(NC(=O)Cc3ccc(C#N)cc3)c2)c2cncc(F)c21` [Example 92, 2-(4-cyanophenyl)-N-(5-{[7-fluoro-1-(1-hydroxy-2-methylpropan-2-yl)-1H-pyrrolo[3,2-c]pyridin-3-yl]carbonyl}pyridin-3-yl)acetamide] displayed an IC50 of 39.8 nM.

In turn, `Cc1cc(C(F)(F)F)nn1CC(=O)Nc1cncc(C(=O)c2cn(C(C)CO)c3c(F)cncc23)c1` (single isomer, unassigned) [Example 216, N-(5-{[7-fluoro-1-(1-hydroxypropan-2-yl)-1H-pyrrolo[3,2-c]pyridin-3-yl]carbonyl}pyridin-3-yl)-2-[5-methyl-3-(trifluoromethyl)-1H-pyrazol-1-yl]acetamide] gave an IC50 of 20.4 nM.

As to `CC(C)(O)Cc1cccc(CC(=O)Nc2cc(C(=O)c3cn(CCO)c4ccncc34)ccn2)c1` [Example 151, N-(4-{[1-(2-hydroxyethyl)-1H-pyrrolo[3,2-c]pyridin-3-yl]carbonyl}pyridin-2-yl)-2-[3-(2-hydroxy-2-methylpropyl)phenyl]acetamide], the IC50 is 408 nM.

In the case of `CC(CO)n1cc(C(=O)c2cncc(NC(=O)Cn3cc(C4CC4)nn3)c2)c2cncc(F)c21` (single isomer, unassigned) [Example 207, 2-(4-cyclopropyl-1H-1,2,3-triazol-1-yl)-N-(5-{[7-fluoro-1-(1-hydroxypropan-2-yl)-1H-pyrrolo[3,2-c]pyridin-3-yl]carbonyl}pyridin-3-yl)acetamide], the IC50 stood at 179 nM.

Turning to `CC(C)n1cc(C(=O)c2cncc(NC(=O)Cc3ccc(C#N)cc3)c2)c2cnccc21` [Example 49, 2-(4-cyanophenyl)-N-(5-{[1-(propan-2-yl)-1H-pyrrolo[3,2-c]pyridin-3-yl]carbonyl}pyridin-3-yl)acetamide], the IC50 was found to be 180 nM.

With `CC(C)(CO)n1cc(C(=O)c2cncc(NC(=O)Cc3ccc(C(F)(F)F)cc3)c2)c2cnccc21` [Example 33, N-(5-{[1-(1-hydroxy-2-methylpropan-2-yl)-1H-pyrrolo[3,2-c]pyridin-3-yl]carbonyl}pyridin-3-yl)-2-[4-(trifluoromethyl)phenyl]acetamide], the IC50 came to 3.11 nM.

`CC(C)n1cc(C(=O)c2cncc(NC(=O)Cc3ccc(F)cn3)c2)c2cncc(F)c21` [Example 88, N-(5-{[7-fluoro-1-(propan-2-yl)-1H-pyrrolo[3,2-c]pyridin-3-yl]carbonyl}pyridin-3-yl)-2-(5-fluoropyridin-2-yl)acetamide] had an IC50 of 68.4 nM.

Take `CC(C)n1cc(C(=O)c2cncc(NC(=O)Cn3cccn3)c2)c2cnccc21` [Example 122, N-(5-{[1-(propan-2-yl)-1H-pyrrolo[3,2-c]pyridin-3-yl]carbonyl}pyridin-3-yl)-2(1H-pyrazol-1-yl)acetamide]: the IC50 came to 1220 nM.

Compound `CC(C)n1cc(C(=O)c2cncc(NC(=O)Cc3ccc(C#N)c(C(F)(F)F)c3)c2)c2cnccc21` [Example 37, 2-[4-cyano-3-(trifluoromethyl)phenyl]-N-(5-{[1-(propan-2-yl)-1H-pyrrolo[3,2-c]pyridin-3-yl]carbonyl}pyridin-3-yl)acetamide] showed an IC50 of 51.7 nM.

Compound `CC(C)n1ncc(CC(=O)Nc2cncc(C(=O)c3cn(C(C)CO)c4ccncc34)c2)c1C(F)(F)F` (single isomer, unassigned) [Example 71, N-(5-{[1-(1-hydroxypropan-2-yl)-1H-pyrrolo[3,2-c]pyridin-3-yl]carbonyl}pyridin-3-yl)-2-[1-(propan-2-yl)-5-(trifluoromethyl)-1H-pyrazol-4-yl]acetamide] showed an IC50 of 149 nM.

For `Cc1cc(C(F)(F)F)nn1CC(=O)Nc1cncc(C(=O)c2cn(C(C)C)c3c(F)cncc23)c1` [Example 32, N-(5-{[7-fluoro-1-(propan-2-yl)-1H-pyrrolo[3,2-c]pyridin-3-yl]carbonyl}pyridin-3-yl)-2-[5-methyl-3-(trifluoromethyl)-1H-pyrazol-1-yl]acetamide], the IC50 came to 11.4 nM.

As to `CC(C)n1cc(C(=O)c2cc(NC(=O)Cc3ccc(C#N)cc3)ccn2)c2cnccc21` [Example 54, 2-(4-cyanophenyl)-N-(2-{[1-(propan-2-yl)-1H-pyrrolo[3,2-c]pyridin-3-yl]carbonyl}pyridin-4-yl)acetamide], the IC50 is 176 nM.

`CC(C)(CO)n1cc(C(=O)c2cncc(NC(=O)Cc3ccc(Cl)cn3)c2)c2cnccc21` [Example 8, 2-(5-Chloro-pyridin-2-yl)-N-{5-[1-(2-hydroxy-1,1-dimethyl-ethyl)-1H-pyrrolo[3,2-c]pyridine-3-carbonyl]-pyridin-3-yl}-acetamide] had an IC50 of 38.5 nM.

Take `COc1ncc(C(=O)c2cn(C(C)C)c3ccncc23)cc1NC(=O)Cc1ccc(C#N)cc1` [Example 47, 2-(4-cyanophenyl)-N-(2-methoxy-5-{[1-(propan-2-yl)-1H-pyrrolo[3,2-c]pyridin-3-yl]carbonyl}pyridin-3-yl)acetamide]: the half-inhibitory concentration (IC50) came to 187 nM.

In turn, `CC(C)n1cc(C(=O)c2ccnc(NC(=O)Cc3ccc(C#N)c(C(F)(F)F)c3)c2)c2cnccc21` [Example 233, 2-[4-cyano-3-(trifluoromethyl)phenyl]-N-(4-{[1-(propan-2-yl)-1H-pyrrolo[3,2-c]pyridin-3-yl]carbonyl}pyridin-2-yl)acetamide] gave an IC50 of 24.4 nM.

Compound `CC(C)(CO)n1cc(C(=O)c2cncc(NC(=O)Cn3cc(C4CC4)nn3)c2)c2cncc(F)c21` [Example 240, 2-(4-cyclopropyl-1H-1,2,3-triazol-1-yl)-N-(5-{[7-fluoro-1-(1-hydroxy-2-methylpropan-2-yl)-1H-pyrrolo[3,2-c]pyridin-3-yl]carbonyl}pyridin-3-yl)acetamide] yielded an IC50 of 24 nM.

Turning to `CC(C)n1cc(C(=O)c2cncc(NC(=O)Cn3cc(C(F)(F)F)nn3)c2)c2cnccc21` [Example 38, N-(5-{[1-(propan-2-yl)-1H-pyrrolo[3,2-c]pyridin-3-yl]carbonyl}pyridin-3-yl)-2[4-(trifluoromethyl)-1H-1,2,3-triazol-1-yl]acetamide], 147 nM corresponded to half-maximal inhibition (IC50).

In the case of `CC(C)n1cc(C(=O)c2ccnc(NC(=O)Cn3cccn3)c2)c2cnccc21` [Example 166, N-(4-{[1-(propan-2-yl)-1H-pyrrolo[3,2-c]pyridin-3-yl]carbonyl}pyridin-2-yl)-2-(1H-pyrazol-1-yl)acetamide], the IC50 amounted to 955 nM.

In turn, `CC(CO)n1cc(C(=O)c2cc(NC(=O)Cc3cccc(C(F)(F)F)c3)ccn2)c2cnccc21` (single isomer, unassigned) [Example 229, N-(2-{[1-(1-hydroxypropan-2-yl)-1H-pyrrolo[3,2-c]pyridin-3-yl]carbonyl}pyridin-4-yl)-2-[3-(trifluoromethyl)phenyl]acetamide] came in with an IC50 of 200 nM.

For the compound `COCCn1nc(C(C)(C)C)nc1CC(=O)Nc1cncc(C(=O)c2cn(C(C)C)c3ccncc23)c1` [Example 44, 2-[3-tert-butyl-1-(2-methoxyethyl)-1H-1,2,4-triazol-5-yl]-N-(5-{[1-(propan-2-yl)-1H-pyrrolo[3,2-c]pyridin-3-yl]carbonyl}pyridin-3-yl)acetamide], the IC50 turned out to be 531 nM.

Turning to `CC(C)n1cc(C(=O)c2cc(NC(=O)Cn3cc(C(F)(F)F)nn3)ccn2)c2cncc(F)c21` [Example 83, N-(2-{[7-fluoro-1-(propan-2-yl)-1H-pyrrolo[3,2-c]pyridin-3-yl]carbonyl}pyridin-4-yl)-2[4-(trifluoromethyl)-1H-1,2,3-triazol-1-yl]acetamide], the IC50 is 344 nM.

`CC(C)n1ncc(CC(=O)Nc2cncc(C(=O)c3cn(C(C)CO)c4ccncc34)c2)c1C(F)(F)F` (single isomer, unassigned) [Example 64, N-(5-{[1-(1-hydroxypropan-2-yl)-1H-pyrrolo[3,2-c]pyridin-3-yl]carbonyl}pyridin-3-yl)-2-[1-(propan-2-yl)-5-(trifluoromethyl)-1H-pyrazol-4-yl]acetamide] gave an IC50 of 105 nM.

With “2-(2,5-dicyclopropyl-1,3-oxazol-4-yl)-N-(4-{[1-(oxetan-3-yl)-1H-pyrrolo[3,2-c]pyridin-3-yl]carbonyl}pyridin-2-yl)acetamide [Example 203]”, inhibition was half-maximal at 71.3 nM (IC50).

Consider `CC(C)c1cn(CC(=O)Nc2cc(C(=O)c3cn(C4COC4)c4ccncc34)ccn2)nn1` [Example 199, N-(4-{[1-(oxetan-3-yl)-1H-pyrrolo[3,2-c]pyridin-3-yl]carbonyl}pyridin-2-yl)-2-[4-(propan-2-yl)-1H-1,2,3-triazol-1-yl]acetamide], for which half-maximal inhibition (IC50) required 186 nM.

Turning to `Cc1oc(C2CC2)nc1CC(=O)Nc1cc(C(=O)c2cn(C(C)C)c3ccncc23)ccn1` [Example 78, 2-(2-cyclopropyl-5-methyl-1,3-oxazol-4-yl)-N-(4-{[1-(propan-2-yl)-1H-pyrrolo[3,2-c]pyridin-3-yl]carbonyl}pyridin-2-yl)acetamide], the IC50 turned out to be 15.8 nM.

Values taken from patent publication US9163021B2, “Pyrrolo[3,2-c]pyridine tropomyosin-related kinase inhibitors” (Pfizer Limited, priority 2012, dated 2015).
